Data reported in US10836732B2, “Compounds for combating arthropods” (priority 2013, dated 2020).

Tests used:
Format in all cases: in vivo
Boophilus microplus = Boophilus microplus - injection test (BBOMI Inj); conditions: 4 μg/animal, injected into engorged adult female cattle ticks, after 7 days
Protocol: (§1) Solvent: dimethyl sulphoxide
To produce an appropriate active ingredient formulation, 10 mg of active ingredient are mixed with 0.5 ml of solvent and the concentrate is diluted with solvent to the desired concentration.
1 μl of the active ingredient solution is injected into the abdomen of 5 engorged adult female cattle ticks (Boophilus microplus). The animals are transferred into dishes and kept in a climate-controlled room.
Efficacy is assessed after 7 days by laying of fertile eggs. Eggs which are not visibly fertile are stored in a climate-controlled cabinet until the larvae hatch after about 42 days. An efficacy of 100% means that none of the ticks has laid any fertile eggs; 0% means that all the eggs are fertile.

Musca domestica [1] = experiment: Musca domestica test (MUSCDO); conditions: 20 ppm, adult houseflies, after 2 days
Protocol: as §1
(§2) To produce an appropriate active ingredient formulation, 10 mg of active ingredient are mixed with 0.5 ml of dimethyl sulphoxide, and the concentrate is diluted with water to the desired concentration.
(§3) Vessels containing a sponge treated with sugar solution and the active ingredient formulation of the desired concentration are populated with 10 adult houseflies (Musca domestica).
After 2 days, the kill in % is determined 100% means that all of the flies have been killed or knocked down; 0% means that none of the flies have been killed or knocked down.

Lucilia cuprina [2] = experiment: Lucilia cuprina - test; conditions: 100 ppm, L1 larvae, after 2 days
Protocol: as §1, §2
(§4) About 20 L1 larvae of the Australian sheep blowfly (Lucilia cuprina) are transferred into a test vessel containing minced horsemeat and the active ingredient preparation of the desired concentration.
(§5) After 2 days, the kill in % is determined 100% means that all the larvae have been killed; 0% means that none of the larvae have been killed.

Lucilia cuprina [3] = experiment: Lucilia cuprina test (LUCICU); conditions: 20 ppm, L1 larvae, after 2 days
Protocol: as §1, §2, §4, §5

Amblyomma hebraeum = experiment: Amblyomma hebaraeum - test (tick nymphs, immersion); conditions: 100 ppm, tick nymphs immersed one minute, after 42 days
Protocol: as §1, §2
Tick nymphs (Amblyomma hebraeum) are placed into perforated plastic beakers and immersed in the desired concentration for one minute. The ticks are transferred on filter paper into a Petri dish and stored in a climate-controlled cabinet.
After 42 days, the kill in % is determined 100% means that all of the ticks have been killed; 0% means that none of the ticks have been killed.

Tetranychus urticae = Tetranychus urticae - spray test, OP-resistant; conditions: 100 g/ha, bean leaf discs, after 6 days
Protocol: Solvent: 78.0 parts by weight of acetone
• 1.5 parts by weight of dimethylformamide Emulsifier: alkylaryl polyglycol ether
To produce an appropriate active ingredient formulation, 1 part by weight of active ingredient is dissolved using the specified parts by weight of solvent and made up with water containing an emulsifier concentration of 1000 ppm until the desired concentration is attained. To produce further test concentrations, the preparation is diluted with emulsifier-containing water.
Discs of bean leaves (Phaseolus vulgaris) infested by all stages of the greenhouse red spider mite (Tetranychus urticae) are sprayed with an active ingredient formulation of the desired concentration.
After 6 days, efficacy in % is determined 100% means that all the spider mites have been killed; 0% means that none of the spider mites have been killed.

Musca domestica [4] = experiment: Musca domestica - test; conditions: 100 ppm, adult houseflies, after 2 days
Protocol: as §1, §2, §3
After 2 days, the kill in % is determined 100% means that all of the flies have been killed; 0% means that none of the flies have been killed.

[5] = system: Aedes aegypti strain MONHEIM; experiment: Aedes test (AEDSAE surface treatment); conditions: read-out: efficacy (mortality in %)
Protocol: (§6) Solvent: acetone+2000 ppm rapeseed oil methyl ester (RME)
(§7) To produce an appropriate active ingredient formulation, the active ingredient is dissolved in the solvent (2 mg/ml). The active ingredient formulation is pipetted onto a glazed tile and, after it has dried off, adult mosquitoes of the species Aedes aegypti strain MONHEIM are placed onto the treated tile. The exposure time is 30 minutes.
(§8) 24 hours after contact with the treated surface, mortality in % is determined 100% means that all mosquitoes have been killed; 0% means that none of the mosquitoes have been killed.

Rhipicephalus sanguineus = Rhipicephalus sanguineus - in vitro contact tests with brown dog ticks (RHIPSA); conditions: 1 μg/cm^2, adult ticks, after 48 h
Protocol: For the coating of the test tubes, 9 mg of active ingredient are first dissolved in 1 ml of acetone p.a. and then diluted to the desired concentration with acetone p.a. 250 μl of the solution are distributed homogeneously on the inner walls and base of a test tube (25 ml crimp top vial (Fisher Scientific, Order No. 320 55 60) by turning and rocking on a “Rock ‘n’ Roller” (Model L202, Labinco; rocking rotation at 30 rpm in a fume hood for 2 h). With 900 ppm active ingredient solution and internal surface area 44.7 cm^2, given homogeneous distribution, an area-based dose of 5 μg/cm^2 is achieved.
Preparation examples for the inventive halogen-substituted compounds of the formula (I) are tested for their contact efficiency with ectoparasitic arachnids (brown dog ticks here). For this purpose, crimp top vials are coated with 250 μl of an acetone solution of the active ingredient as described above. […] After 48 h, efficacy (knockdown and mortality) and mortality are determined To this end, the ticks are knocked to the floor of the tube and incubated on a hotplate at 45-50° C. for not more than 5 min Ticks which remain motionless on the floor or move in such an uncoordinated manner that they are unable to deliberately avoid the heat by climbing upwards are considered to be dead or knocked down (moribund).

Ctenocephalides felis = Ctenocephalides felis - oral test (CTECFE); conditions: 20 ppm in citrated cattle blood, adult cat fleas, after 2 days
Protocol: as §1
For the purpose of producing an appropriate active ingredient formulation, 10 mg of active ingredient are mixed with 0.5 ml of dimethyl sulphoxide. Dilution with citrated cattle blood gives the desired concentration.
About 20 unfed adult cat fleas (Ctenocephalides felis) are placed into a chamber which is closed at the top and bottom with gauze. A metal cylinder whose bottom end is closed with parafilm is placed onto the chamber. The cylinder contains the blood/active ingredient preparation, which can be imbibed by the fleas through the parafilm membrane.
After 2 days, the kill in % is determined 100% means that all of the fleas have been killed; 0% means that none of the fleas have been killed.

[6] = system: Anopheles funestus strain FUMOZ-R; experiment: Anopheles test (ANPHFU surface treatment); conditions: Anopheles funestus, read-out: efficacy (mortality in %)
Protocol: as §6
as §7, with “Anopheles funestus” for “Aedes aegypti”, “FUMOZ-R (Hunt et al., Med Vet Entomol. 2005 September; 19(3):271-5)” for “MONHEIM”
as §8

Compound: Cc1cc(C(F)(C(F)(F)F)C(F)(F)F)cc(C)c1-c1cn(-c2ccc(Cl)c(C(=O)NC3CC3)c2)nn1 [I-T48-1, 2-chloro-N-cyclopropyl-5-[4-[2,6-dimethyl-4-[1,2,2,2-tetrafluoro-1-(trifluoromethyl)ethyl]phenyl]triazol-1-yl]benzamide]
- efficacy (no fertile eggs laid) (Boophilus microplus): 100%
- efficacy (killed or knocked down) (Musca domestica [1]): 100%
- efficacy (kill in %) (Lucilia cuprina [2]): 100%
- efficacy (kill in %) (Lucilia cuprina [3]): 100%
- efficacy (kill in %) (Amblyomma hebraeum): 100%
- efficacy (spider mites killed) (Tetranychus urticae): 100%
- efficacy (kill in %) (Musca domestica [4]): 100%
- mortality at 20 mg/m2 [5]: 90 to 100%
- mortality at 100 mg/m2 [5]: 90 to 100%
- efficacy (dead or knocked down) (Rhipicephalus sanguineus): 100%
- efficacy (kill in %) (Ctenocephalides felis): 100%
- mortality at 100 mg/m2 [6]: 90 to 100%
